According to publication PMC11595864, “Design, Synthesis, and Evaluation of Novel Thiazole-Containing Algicides Inspired by Bacillamide A” (Marine Drugs, 2024):
Converted amounts (≈) assume the structure as drawn.

Columns and labels:
S. costatum [1] = experiment: Algicidal activity assay, EC50; assay type: cell-based, Skeletonema costatum; conditions: Skeletonema costatum; Mean ± SD, n = 3; read-out: EC50 S. costatum
Protocol: (§1) P. minimum, A. pacificum, and S. costatum were purchased from Guangyu Biological Technology Co., Ltd. (Shanghai, China). The algae strain was cultured in F/2 medium ((12 h light: 12 h dark cycle), 20 ± 1 °C, 70 μmol m^−2 s^−1). Purchased algae were transferred to sterile conical flasks for culture; after the algae proliferation was stabilized, the expanded culture was next carried out following standard conditions.
(§2) Copper sulfate and Diuron were used as the positive controls. EC50 values were calculated according to the equation of the quantity–effect relationship in Equation (2) using the Hill model of Graph Pad Prism software (8.0.2). (2) Y=Bottom+(Top-Bottom)/1+10^(Log EC50-X)×Hill Slope
(§3) The X and Y values represent the concentration (mg/L) and response values of the control and experimental groups, respectively. The Top, Bottom, and Hill Slope represent the maximum response, minimum response, and the curve slope, respectively. The EC50 represents half of the maximum effective concentration.

A. pacificum [2] = experiment: Algicidal activity assay, EC50; assay type: cell-based, Alexandrium pacificum; conditions: Alexandrium pacificum; Mean ± SD, n = 3
Protocol: as §1, §2, §3

P. minimum [3] = experiment: Algicidal activity assay, EC50; assay type: cell-based, Prorocentrum minimum; conditions: Prorocentrum minimum; Mean ± SD, n = 3; read-out: EC50 P. minimum
Protocol: as §1, §2, §3

A. pacificum [4] = experiment: Growth-inhibition rate measurement at 50 mg/L, 24 h; assay type: cell-based, Alexandrium pacificum; conditions: Alexandrium pacificum, read-out: inhibition rate against A. pacificum
Protocol: as §1
The stock solutions of bacillamide A and different BDs were prepared in dimethyl sulfoxide (DMSO) with the requisition amount. […] The controls received the same volume of DMSO. The inhibitory activities of bacillamide A, different BDs, and positive controls were screened by 96 well microtiter plates at different concentrations. Inhibition ratios (IRs) of cupric sulfate (50 mg/L, positive control), bacillamide A (50 mg/L), and BDs (50 mg/L) were calculated on algae using Equation (1). (1) IR=Cc0-Cex/Cc0×100%
The CC0 and Cex, respectively, represent the algal densities of the control and experimental groups.

zebrafish = experiment: Zebrafish acute toxicity assay; assay type: in vivo; conditions: zebrafish
Protocol: Zebrafish acute toxicity of bacillamide A and synthesized BDs were evaluated at 0.1 mg/L, 1 mg/L, and 10 mg/L, respectively. Diuron and CuSO4 were used as positive controls. The commercial zebrafish (body length > 3.0 cm) were domesticated in aerated tap water for 24 h, fed once daily for seven consecutive days, and stopped being fed before the experiment.
4. Acute toxicity table S1.
Compound Concentration Survival percent Acute
aAccording to the Guide for Environmental Safety Assessment of Chemical Pesticides
4 groups and treated with different compounds for 96 h.

PSII in P. minimum = experiment: Quantum yield Fv/Fm of PSII; assay type: cell-based, Prorocentrum minimum; conditions: 10 mg/L, 72 h, versus negative control
Protocol: (§4) P. minimum, S. costatum, and A. pacificum cells were cultured in F/2 medium. All flasks were cultivated under 12 h of light: 12 h of dark and 70 μmol m^−2 s^−1 at 20 ± 1 °C. […] Finally, the algal cells were collected and diluted in 6 mL of phosphate buffer (pH = 7.8). A small amount of quartz sand was added into the algal cells under ice bath. The obtained homogenate was next poured into a centrifuge tube and centrifuged at 5000 r/min for 25 min at 4 °C. The obtained supernatant was placed in the refrigerator at 4 °C for the next step experiment.
(§5) Fv/Fm values were determined by using AquaPen handheld algae fluorescence meter (Nanjing Mingao Instrument Co., Ltd., Nanjing, China). The algae cells were darkened for 30 min and Fv/Fm values were measured.

PSII in S. costatum = experiment: Quantum yield Fv/Fm of PSII; assay type: cell-based, Skeletonema costatum; conditions: 10 mg/L, 72 h, versus negative control
Protocol: as §4, §5

P. minimum [5] = experiment: MDA level (thiobarbituric acid assay kit); assay type: cell-based, Prorocentrum minimum; conditions: 10 mg/L, 72 h, versus control (DMSO)
Protocol: as §4
(§6) The malondialdehyde (MDA) assay kit was purchased from Lvyuandade Biochemical Co, Ltd., Beijing, China. The MDA parameter was monitored according to the procedure provided by the manufacturer. A total of 1 mL of algal extract was mixed with thiobarbituric acid solution (2 mL, 0.6%). The solution was sealed and kept in a boiling water bath for 15 min, followed by being cooled and centrifuged at 4500 r/min for 10 min. The absorbance values of collected supernatant were measured and calculated by the Formula (3) at 600 nm, 532 nm, and 450 nm:MDA content (nmol∙mgprot^−1) = 6.45 × (A532 − A600) − 0.56 × A450(3)

S. costatum [6] = experiment: MDA level (thiobarbituric acid assay kit); assay type: cell-based, Skeletonema costatum; conditions: 10 mg/L, 72 h, versus control (DMSO)
Protocol: as §4, §6

[7] = system: other microalgae (e.g., diatoms, cyanobacteria, green algae); parameters: method as in doi:10.1016/j.tetlet.2003.08.115, PMID 17454826; conditions: cited from earlier work
Salmonella choleraesuis = system: Salmonella choleraesuis; parameters: method as in PMID 32483303; conditions: cited from earlier work
Vibrio cholerae = system: Vibrio cholerae; parameters: method as in PMID 32483303; conditions: cited from earlier work
Alternaria sp. = system: Alternaria sp.; parameters: method as in PMID 32483303; conditions: cited from earlier work

Compound: CC(=O)c1nc(C(=O)NCCc2c[nH]c3ccccc23)cs1 [bacillamide A]
- EC50 (S. costatum [1]): 2.51 ± 0.09 µg/mL (≈ 8.01 µM)
- EC50 (A. pacificum [2]): 2.17 ± 0.31 µg/mL (≈ 6.92 µM)
- EC50 (P. minimum [3]): 3.93 ± 0.28 µg/mL (≈ 12.5 µM)
- inhibition at 50 µg/mL (A. pacificum [4]): 55.3%
- Survival percent (zebrafish; 0.1 mg/L, 0h): 100
- Survival percent (zebrafish; 0.1 mg/L, 24h): 100
- Survival percent (zebrafish; 0.1 mg/L, 48h): 100
- Survival percent (zebrafish; 0.1 mg/L, 72h): 100
- Survival percent (zebrafish; 0.1 mg/L, 96h): 100
- Survival percent (zebrafish; 1 mg/L, 0h): 100
- Survival percent (zebrafish; 1 mg/L, 24h): 100
- Survival percent (zebrafish; 1 mg/L, 48h): 87
- Survival percent (zebrafish; 1 mg/L, 72h): 83
- Survival percent (zebrafish; 1 mg/L, 96h): 83
- Survival percent (zebrafish; 10 mg/L, 0h): 100
- Survival percent (zebrafish; 10 mg/L, 24h): 100
- Survival percent (zebrafish; 10 mg/L, 48h): 100
- Survival percent (zebrafish; 10 mg/L, 72h): 100
- Survival percent (zebrafish; 10 mg/L, 96h): 100
- Acute toxicity (zebrafish; class by GB/T31270.12, LC50 (96 h)): low (LC50 (96 h) > 10 mg/L, low toxicity)
- decrease of Fv/Fm of PSII in P. minimum (PSII in P. minimum): 2 fold
- decrease of quantum yield Fv/Fm of PSII in S. costatum (PSII in S. costatum): 4 fold
- increase of MDA levels in P. minimum (P. minimum [5]): 2.0 fold
- increase of MDA levels in S. costatum (S. costatum [6]): 2.6 fold
- algicidal activities against other microalgae [7]: did not display algicidal activities
- antibacterial activity (Salmonella choleraesuis): moderate antibacterial activity
- antibacterial activity (Vibrio cholerae): moderate antibacterial activity
- antifungal activity (Alternaria sp.): slight antifungal activity
